Results published in article PMC9292003, “A β‐ketoacyl carrier protein reductase confers heat tolerance via the regulation of fatty acid biosynthesis and stress signaling in rice” (The New Phytologist, 2021).

Target: T1, HTS1 (GST-HTS1) (Oryza sativa, UniProt Q7XMI8)
T1 construct: E. coli BL21; vector printed as pET30a
Test: NADPH absorption at
Type: biochemical
Details: reductase activity; co-substrate printed as NADH in results, NADPH in methods

For CC(=O)CC(=O)SCCNC(=O)CCNC(=O)[C@H](O)C(C)(C)COP(=O)(O)OP(=O)(O)OC[C@H]1O[C@@H](n2cnc3c(N)ncnc32)[C@H](O)[C@@H]1OP(=O)(O)O [acetoacetyl-CoA], the “NADPH absorption at 340 nm” value was “High catalytic activity was detected in GST‐HTS1 after introducing acetoacetyl‐CoA and NADH”.
